The values that follow come from PMC5632197 (Bioorganic & medicinal chemistry, 2017).

Structures are written as SMILES. “Also recorded” adds a separate entry of the source. Like-named read-outs stand apart in the source and are kept apart here.

The target in data set [1] is T1, T. brucei AdoMetDC/prozyme (Trypanosoma brucei brucei, UniProt P50244).
T1 sequence (P50244 86-370 limits assumed): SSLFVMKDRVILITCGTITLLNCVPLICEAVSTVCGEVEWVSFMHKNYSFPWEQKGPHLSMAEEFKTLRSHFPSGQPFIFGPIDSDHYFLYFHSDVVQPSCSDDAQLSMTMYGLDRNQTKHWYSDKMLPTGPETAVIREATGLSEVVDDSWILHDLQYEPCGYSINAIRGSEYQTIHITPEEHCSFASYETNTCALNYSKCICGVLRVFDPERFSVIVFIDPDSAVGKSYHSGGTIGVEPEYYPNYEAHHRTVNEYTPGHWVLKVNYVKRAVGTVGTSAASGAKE
As to the kind of experiment: T. brucei AdoMetDC enzyme activity assay. The data set is classed as biochemical. Particulars: for fold less active against AdoMetDC compared to parent: compared to 1 (27 versus 11a), IC50 with PI.

Data set [2] deals with T. brucei Lister 427 bloodstream-form cells. As to the kind of experiment: T. brucei cell growth inhibition assay. In kind it is cell-based, Trypanosoma brucei brucei.
A further data set relates to CNS stage of HAT. Particulars: cited from earlier work.
The conditions of data set [3]: mice; cited from earlier work.
Another data set deals with T. brucei. Particulars: 7-day 50 mg/kg/day intraperitoneal dosage; cited from earlier work.
Setting [4] is: AdoMetDC IC50 with PI, with 30 min pre-incubation, triplicate.
Setting [5] is: AdoMetDC IC50 without PI, without pre-incubation, triplicate.

By IC50 is commonly meant the midpoint of a concentration-inhibition curve. `Cc1nc2c(N)ncnc2n1[C@@H]1O[C@H](CN(C)C/C=C\CNC(=O)OC(C)(C)C)[C@H]2OC(C)(C)O[C@H]21` [Compound 10a]: the IC50 in data set [1] (setting [4]) and in data set [1] (setting [5]) was more than 50 µM in each case.

`CN(C/C=C\CN)C[C@H]1O[C@@H](n2cnc3c(N)ncnc32)[C@@H]2OC(C)(C)O[C@@H]21` [Compound 11a]: the “fold less active against AdoMetDC compared to parent” value (shortened to “fold less active against AdoMetDC”) in data set [1] is given as ~ 50 fold. Besides, the “fold reduced activity in T. b. brucei cell growth assay compared to 1” value in data set [2] (EC50 compared to parent MDL 73811 (1)) is on record as ~ 50 fold.

With `Cc1nc2c(N)ncnc2n1[C@@H]1O[C@H](CN(C/C=C\CN)C2CC2)[C@@H](O)[C@H]1O` [Compound 12c], the IC50 in data set [1] (setting [4]) and in data set [1] (setting [5]) was more than 50 µM throughout.

For the compound `Cc1nc2c(N)ncnc2n1[C@@H]1O[C@H](CN(C/C=C\CNC(=O)OC(C)(C)C)C2CC2)[C@H]2OC(C)(C)O[C@H]21` [Compound 10c], the IC50 in data set [1] (setting [5]) was more than 50 µM.

For the compound `NC/C=C\CN(CCF)C[C@H]1O[C@@H](n2cnc3c(N)ncnc32)[C@H](O)[C@@H]1O` [Compound 12b], in data set [1] (setting [5]), the IC50 was more than 50 µM.

Consider `CCCC(=O)NC/C=C\CN(C)C[C@H]1O[C@@H](n2cnc3c(N)ncnc32)[C@H](OC(C)=O)[C@@H]1OC(C)=O` [Compound 6c], for which the IC50 in data set [1] (setting [4]) and in data set [1] (setting [5]) was more than 50 µM in each case.

In the case of `CC(C)Nc1ncnc2c1ncn2[C@@H]1O[C@H](CN(C)C/C=C\CN)[C@@H](O)[C@H]1O` [Compound 28c], in data set [1], the “fold less active against AdoMetDC” value is 3- to 4 fold.

For `CNc1ncnc2c1ncn2[C@@H]1O[C@H](CN(C)C/C=C\CN)[C@H]2OC(C)(C)O[C@H]21` [Compound 27], in data set [1] (setting [5]), the IC50 was more than 50 µM. The “fold less active against AdoMetDC” value in data set [1] was 3- to 4 fold.

Consider `CN(C/C=C\CN)C[C@H]1O[C@@H](n2cnc3cncnc32)[C@@H]2OC(C)(C)O[C@@H]21` [Compound 30], for which the IC50 in data set [1] (setting [4]) and in data set [1] (setting [5]) was more than 50 µM each time.

Turning to `CC1(C)O[C@@H]2[C@H](O1)[C@@H](CN(C/C=C\CN)CCF)O[C@H]2n1cnc2c(N)ncnc21` [Compound 11b], the half-inhibitory concentration (IC50) in data set [1] (setting [4]) and in data set [1] (setting [5]) was more than 50 µM each time.

Turning to `CCOc1ncnc2c1ncn2[C@@H]1O[C@H](CN(C)C/C=C\CN)[C@@H](O)[C@H]1O` [Compound 28d], in data set [1], the “fold less active against AdoMetDC” value is recorded as approximately 16 fold.

Turning to `Cc1nc2c(N)ncnc2n1[C@@H]1O[C@H](CN(C)C/C=C\CNC(=O)OC(C)C)[C@@H](O)[C@H]1O` [Compound 3c], the IC50 in data set [1] (setting [4]) and in data set [1] (setting [5]) was more than 50 µM each time.

For `Cc1nc2c(N)ncnc2n1[C@@H]1O[C@H](CN(C/C=C\CN)CCO)[C@H]2OC(C)(C)O[C@H]21` [Compound 11d], the 50% inhibitory concentration (IC50) in data set [1] (setting [4]) and in data set [1] (setting [5]) was more than 50 µM throughout.

Turning to `CC(=O)NC/C=C\CN(C)C[C@H]1O[C@@H](n2cnc3c(N)ncnc32)[C@H](OC(C)=O)[C@@H]1OC(C)=O` [Compound 6a], the IC50 in data set [1] (setting [4]) and in data set [1] (setting [5]) was more than 50 µM in each case.

In the case of `CCCC(=O)NC/C=C\CN(C)C[C@H]1O[C@@H](n2cnc3c(N)ncnc32)[C@H](O)[C@@H]1O` [Compound 5c], the IC50 in data set [1] (setting [4]) and in data set [1] (setting [5]) was more than 50 µM in each case.

As to `CCC(=O)NC/C=C\CN(C)C[C@H]1O[C@@H](n2cnc3c(N)ncnc32)[C@H](OC(C)=O)[C@@H]1OC(C)=O` [Compound 6b], the IC50 in data set [1] (setting [4]) and in data set [1] (setting [5]) was more than 50 µM throughout.

For orientation: EC50 means the concentration needed to bring the measured effect to its halfway point. For the compound `CN(CC=CCN)CC1OC(n2cnc3c(N)ncnc32)C2OC3(CCCCC3)OC12` (stereo not drawn) [Compound 22], the IC50 in data set [1] (read-out: AdoMetDC IC50, pre-incubation not stated) is more than 50 µM. The EC50 in data set [2] (read-out: EC50 (T. b. brucei), 48 h cell viability, triplicate) is more than 25 µM.

Regarding `Cc1nc2c(N)ncnc2n1[C@@H]1O[C@H](CN(C/C=C\CN)C2CC2)[C@H]2OC(C)(C)O[C@H]21` [Compound 11c], the half-inhibitory concentration (IC50) in data set [1] (setting [4]) and in data set [1] (setting [5]) was more than 50 µM each time.

On to `CN(C/C=C\CN)C[C@H]1O[C@@H](n2cnc3c(N)ncnc32)[C@H](O)[C@@H]1O` [Compound 1, 5'-(((Z)-4-amino-2-butenyl)methylamino)-5'-deoxyadenosine], for which the “cure in mouse model of the CNS stage of HAT” value in the data set on CNS stage of HAT is “not efficacious; also recorded: neither compound led to a cure”. Moreover, in data set [3], the brain-to-blood ratio is given as 1.7%. Moreover, the “cure of mice infected with T. brucei” value in the data set on T. brucei is “sterile cure”.

Consider `CN(C/C=C\CN)C[C@H]1O[C@@H](n2cnc3c(N(C)C)ncnc32)[C@H](O)[C@@H]1O` [Compound 28b], for which the “fold less active against AdoMetDC” value in data set [1] is ~ 20 fold.

In the case of `CCCCCCCCC(=O)Nc1ncnc2c1ncn2[C@@H]1O[C@H](CN(C)C/C=C\CN)[C@H]2OC(C)(C)O[C@H]21` [Compound 31], in data set [1] (compared to comparator 11a), the “fold more potent inhibition of AdoMetDC enzymatic activity than 11a” value turned out to be 3.5 fold. The “fold more potent inhibition of T.b. brucei proliferation than 11a” value in data set [2] (compared to comparator 11a) came out at 2.6 fold.

Regarding `CNc1ncnc2c1ncn2[C@@H]1O[C@H](CN(C)C/C=C\CN)[C@@H](O)[C@H]1O` [Compound 28a], the “fold less active against AdoMetDC” value in data set [1] was 3- to 4 fold.
